Laboratory results as given in ChEMBL document CHEMBL1136637, “Prodrugs to enhance central nervous system effects of the TRH-like peptide pGlu-Glu-Pro-NH2” (Bioorg Med Chem Lett, 2003).
Square brackets hold non-standard residues; d marks the D form. Peptide text beside a SMILES is read from it. * marks the point of attachment. ξ: configuration not given here. pGlu = O=C1CC[C@@H](C(=O)O)N1; ξE = NC(CCC(=O)O)C(=O)O; OcHex = C1CCC(O*)CC1; OBn = c1ccc(CO*)cc1; OtBu = CC(C)(C)O*

Assays:
Mus musculus [1] = species on record: Mus musculus; assay: (§1) Effective dose required for producing 50% of the maximum analeptic response was determined; format: functional
[2] = Half-life using mouse brain homogenate; format: ADME
Mus musculus [3] = species on record: Mus musculus; assay: as §1; format: functional, organism-based

Row | Compound | half-life [2] | EC50 (Mus musculus [3]) | ED50 (Mus musculus [1])
1 | CCCCCCOC(=O)CCC(NC(=O)[C@@H]1CCC(=O)N1)C(=O)N1CCC[C@H]1C(N)=O (some centres not stated) | 22 min |  | 2.4 µmol/kg
2 | NC(=O)[C@@H]1CCCN1C(=O)C(CCC(=O)OCc1ccccc1)NC(=O)[C@@H]1CCC(=O)N1 (some centres not stated) ([pGlu]-[ξE](OBn)-Pro-NH2) | > 120 min |  | 
3 | COC(=O)CCC(NC(=O)[C@@H]1CCC(=O)N1)C(=O)N1CCC[C@H]1C(N)=O (some centres not stated) ([pGlu]-[ξE](OMe)-Pro-NH2) | 20 min |  | 

More lines, main results first:

Row | half-life [2] | EC50 (Mus musculus [3]) | Compound | ED50 (Mus musculus [1])
4 |  | 23.2 µM/kg | NC(=O)[C@@H]1CCCN1C(=O)[C@H](CCC(=O)O)NC(=O)[C@@H]1CCC(=O)N1 ([pGlu]-Glu-Pro-NH2) | 
5 | 25 min |  | NC(=O)[C@@H]1CCCN1C(=O)C(CCC(=O)OC1CCCCC1)NC(=O)[C@@H]1CCC(=O)N1 (some centres not stated) ([pGlu]-[ξE](OcHex)-Pro-NH2) | 
6 | 70 min |  | CC(C)(C)OC(=O)CCC(NC(=O)[C@@H]1CCC(=O)N1)C(=O)N1CCC[C@H]1C(N)=O (some centres not stated) ([pGlu]-[ξE](OtBu)-Pro-NH2) | 
